Measured values reported in article PMC6072469, “Small molecule piperazinyl-benzimidazole antagonists of the gonadotropin-releasing hormone (GnRH) receptor” (MedChemComm, 2017).
In brackets after ≈: the same amount, converted by molar mass. Read-outs that look alike come from different tables or passages of the source. Blank lines part the entries; values can stand above or below the compound they belong to.

What was measured:
[1] = Solubility (method not given); type: physicochemical
hGnRH receptors = biological target: T1, hGnRH receptors (Homo sapiens, UniProt P30968); experiment: Functional cell assay (Ca2+ FLIPR): inhibition of receptor activation by LHRH/GnRH; type: cell-based; settings: for potency to inhibit GnRH receptor (in words): compared with 1 / desired range
T1 construct: host or cells: HEK293T (division-arrested, stably expressing)
T1 sequence (P30968 1-328): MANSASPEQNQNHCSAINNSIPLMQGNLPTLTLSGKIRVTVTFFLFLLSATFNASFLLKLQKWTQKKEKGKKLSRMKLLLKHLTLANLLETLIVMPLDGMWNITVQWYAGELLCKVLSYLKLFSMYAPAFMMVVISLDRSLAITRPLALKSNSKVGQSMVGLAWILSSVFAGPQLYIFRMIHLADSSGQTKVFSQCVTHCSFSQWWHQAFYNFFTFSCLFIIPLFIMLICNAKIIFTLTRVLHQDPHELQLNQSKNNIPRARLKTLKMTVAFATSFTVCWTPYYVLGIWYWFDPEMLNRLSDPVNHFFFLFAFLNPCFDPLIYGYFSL
Experimental: Compounds insoluble in DMSO at 10 mM were dropped from testing. […] The lead compound WAY207024 (1) was included as a reference in the cell assay. All IC50 values obtained for each test compound in the concentration dependent screening were converted into Ki values using the equation of Cheng and Prusoff.[15] […]
DMEM (Corning Hanks’ Balanced PBS +/- IBMX 1 mM IBMX in Cellgro 10- 013- Salt Solution (TBD by PBS
CV): 90%; (HBSS) titration)
_FBS (Seradigm with 20 mM
Plating cell density for Plating cell density for Forskolin concentration 384-well microplate 384-well microplate for cAMP assay (Gαi-for Ca++ assay for cAMP assay coupled) immediately immediately 5-15 μM without IBMX;
Assay preparations, pretreatment of cells and seeding on 384 well plates.
Thawing Medium was prepared by mixing commercially available stock solutions of DMEM (Corning Cellgro 10-013-CV) and Fetal Bovine Serum, FBS (Seradigm Catalog #1500-500) in a volume ratio of 9:1.
Vials containing 4 x 10^6 frozen cells were transferred from liquid nitrogen to a 37 °C water bath and gently warmed while submerged under water. Immediately after the frozen cells are thawed, the cryovial was removed from the water bath, dried and cleaned with 70% alcohol. Using a 2 mL serological pipette, the cell suspension was transferred to a 15-mL conical centrifuge tube containing 5 mL DMEM pre-warmed to r.t.. The mixture was triturated gently with the same 2 mL serological pipette without causing any air bubbles.
The 15-mL tube was spun at 200x g for 5 minutes at r.t. the supernatant was removed and cells were resuspended in 11 mL of DMEM complete to obtain a cell concentration of 360000 cells/ml. Based on previous titration of cell densitites, 9000 cells were seeded per well and the plate was incubated over night at 37 °C/CO 2.
1. Loading buffer from MD is prepared. Dissolve 1 vial of dye in 10 mL buffer from kit.
2. HBBS/Hepes (1x with Ca/Mg)/20 mM Hepes, pH 7.4 with 0.1 % BSA to be used for dilution of the agonist
3. 60 mL HBBS/20 mM Hepes to be added to test compounds
The day of the assay the seeding medium was carefully decanted from each well by tilting the plate. 25 µl loading buffer containing the Ca 2+ sensing dye was added to each well. Subsequently, 20 µL of HBBS/Hepes were added to each well containing dye. Plates were incubated at 37 °C for 45 min, after which 5 µL antagonist solution (diluted in HBBS/HEPES) were dispensed into each well using a Hamilton 384 well head followed by incubation at r.t. for 15 min. After 15 min agonist was added on the FLIPR platform and the fluorescence signal […]
First sequence: 2 s, 30 sample. (Baseline)
Second sequence: 2 s, 120 sample. (Agonist stimulation)
12.5 µL addiiton, after sample 30.
Addition speed: 20 µl/sec
Compound concentration: 5x, add 12.5 µl of each
One minute baseline stabilisation, 240 s measurement
Compound plate preparation:
Agonist stock solution: Luteinizing hormone releasing hormone, 10 mM in water […]
Dissolve 5 mg in 423 µL of water, store at -80 °C until use.
Prepare a full plate with only agonist at experimental EC50 dose as reported before on FLIPR platform:
Dilute 3,225 µL in 25 mL HBSS/Hepes buffer with 0.1 % BSA
Test compounds (antagonists)
Sample to be analysed (>95% pure by HPLC/microanalysis, fully characterised).
DMSO for cell culture (reference free, anhydrous) stored in desiccator 1: Dimethyl sulfoxide (Hybri-Max™, sterile-filtered, BioReagent, suitable for hybridoma, ≥99.7%, D2650-5X10ML, Sigma-Aldrich) […]
A - Solubility of the sample is assessed with an aliquot of the material and DMSO prior to sample preparation.
B - 10 ±1 mg of each neat, homogeneous sample are weighed into a labelled 1.5 mL flip-top Eppendorff tube.

[2] = Thermodynamic solubility assay (Analiza, LC-QTOFMS); type: physicochemical; settings: for solubility thermodynamic at 24 h: 24 hour incubation, ambient temperature
Experimental: Thermodynamic solubility assay
Analysis performed at Analiza, Cleveland Ohio.
Apparatus Agilent G6538 QTOF Mass Spectrometer equipped with dual Electrospray Ionization with Mass Hunter data software package Agilent 1290 Infinity II UHPLC system equipped with photodiode array detector, binary pump, vacuum degasser, column heater, thermostat and validated data acquisition software Standard Laboratory equipment (e.g. Pyrex volumetric flasks, graduated cylinders and bottles, sonicator, vortexer, digital timer, calibrated analytical balance, pipettes and tips
Test Compounds: were supplied as dry powder in vials
Consumables: Sodium Chloride (Cat # 21618) was purchased from Affymetrix, Cleveland, OH. HPLC grade water (Cat # EM-WX0004-1), Omnisolv Acetonitrile and (Cat #EM-AX0142-1, DimethylSulfoxide (Cat #D1258) was purchased from Spectrum Chemical, New Brunswick, NJ. DeepWell 96 well plates (Cat #AWLS-219002) were purchased from Arctic White, Bethlehem, PA. Whatman Mini UniPrep syringe-less filter device with […] PTFE filter membrane (Cat #US203NPUORG), Formic Acid (Cat# 0961-100mL) and Round bottom 96 well plates (Cat# 29444-104) were purchased from VWR, Radnor, PA. Benzthiazide (Cat # B7149) and Alprenolol (Cat# A0360000) were purchased from Sigma-Aldrich, St. Louis, MO. Hydrochloric acid,36%, (Cat # 124635000) and Phosphate Buffered Saline, 10X PBS solution, (Cat # BP399-500) were purchased from Fisher Scientific, Fair Lawn, New Jersey.
Preparation of Calibration Standards for LC-MS Analysis:
Separate test compound was weighed into 4mL vials for calibration curves. Samples were received as dry powders in vials containing approximately 5mg of material each. Upon arrival at Analiza the vials were intact.
DimethylSulfoxide (DMSO) was added to each sample such that the final concentration was 10mM and vortexed for 5-10 seconds. After vortexing, all compounds appeared to be fully dissolved. Each test compound was transferred to a polypropylene 96 well plate for robotic preparation of calibration standards.
Each test article DMSO stock solution was serially diluted using a Hamilton STARlet liquid handler with 50-50 LC-MS water 0.1% Formic Acid and LC-MS acetonitrile 0.1% Formic Acid to final concentrations as described below in Table 1 and plated in a polypropylene 96 well plate sealed with foil seal for analysis. A standard calibration curve was prepared for each compound from these dilutions.
Ambient Temperature Test compounds were received as dry powders in vials containing approximately 5mg of material each. Upon arrival at Analiza the vials were intact. Each sample was weighed into a Whatman vial and the appropriate Buffer (450uL) was added to each vial for a dose concentration of approximately 2mg/mL .
Following 24 hour incubation on a rotary shaker (200 RPM) at ambient temperature (22.6-25.0°C), the samples were filtered in a 96 well polypropylene plate. The plate was sealed with a pierceable heat seal and analyzed by […]
Quantitation: 1.) LC-QTOFMS: a. Each sample was weighed into a whatman vial and the appropriate buffer (450uL) was added to each vial for a dose concentration of approximately 2mg/mL incubated for 24 hours and filtered b. The filtrates were assayed undiluted or diluted 100X, 1000X, and/or 10000x with a 50:50 solution of mobile phase and eluted using a fast generic gradient program. c. […] The filtrates were quantified with respect to this calibration curve. […]

rat GnRH receptor = biological target: rat GnRH receptor; design: method as in PMID 19271735; settings: concentration to inhibit GnRH binding to the receptor by 50% ref 11; read-out: IC50 (rGnRH); cited from earlier work
human GnRH receptor = biological target: human GnRH receptor; design: method as in PMID 19271735; settings: concentration to inhibit GnRH binding to the receptor by 50% ref 11; read-out: IC50 (hGnRH); cited from earlier work
[3] = pH 1.2 (simulated gastric fluid)
[4] = pH 7.4 (phosphate buffered saline)
[5] = calculated from mean IC50 using the Cheng–Prusoff equation, read-out: Ki (hGnRH)
[6] = inhibition of LHRH/GnRH stimulation in cells stably expressing hGnRH receptors, IC50 geometric mean of two experiments, read-out: pIC50 (hGnRH) (converted)

Structure (SMILES): C#CCN1CCN(c2cccc3[nH]c(-c4ccc(C(C)(C)C)cc4)nc23)CC1 [7b]
solubility [1]: > 0.1 µM

Structure (SMILES): CC(C)(C)c1ccc(-c2nc3c(N4CCN(Cc5cn(CCF)nn5)CC4)cccc3[nH]2)cc1 [8a]
potency to inhibit GnRH receptor (in words) (hGnRH receptors): equally potent as 1
solubility thermodynamic at 24 h [2, 3]: 2100 µg/mL (≈ 4550 µM)
solubility thermodynamic at 24 h [2, 4]: 3 µg/mL (≈ 6.5 µM)
solubility, times more soluble than 1 ([2]; relative to 1): 1.5 times

Structure (SMILES): CC(=O)NC1C(O)C(O)C(CO)OC1n1cc(CN2CCN(c3cccc4[nH]c(-c5ccc(C(C)(C)C)cc5)nc34)CC2)nn1 (stereo not shown) [8f]
Ki (hGnRH receptors; [5]): > 1000 nM
IC50 (hGnRH receptors; [6]): > 10000 nM

Structure (SMILES): Cc1cn(C2CC(n3cc(CN4CCN(c5cccc6[nH]c(-c7ccc(C(C)(C)C)cc7)nc56)CC4)nn3)C(CO)O2)c(=O)[nH]c1=O (stereo not shown) [8g]
Ki (hGnRH receptors; [5]): 38 nM
IC50 (hGnRH receptors; [6]): 2000 nM
solubility thermodynamic at 24 h [2, 3]: 1200 µg/mL (≈ 1880 µM)
solubility thermodynamic at 24 h [2, 4]: < 1 µg/mL

Structure (SMILES): CC(C)(C)c1ccc(-c2nc3c(N4CCN(Cc5cn(-c6ccc(F)cc6)nn5)CC4)cccc3[nH]2)cc1 [8i]
potency to inhibit GnRH receptor (in words) (hGnRH receptors): did not give the desired inhibition

Structure (SMILES): CC(C)(C)c1ccc(-c2nc3c(N4CCN(Cc5cccc6nccnc56)CC4)cccc3[nH]2)cc1 [compound 1]
IC50 (rat GnRH receptor): 72 nM
IC50 (human GnRH receptor): 12 nM

The next lines start with the values.

solubility [1]: > 0.1 µM
potency, fold lower than 1 (hGnRH receptors; relative to 1): 21 fold
Structure (SMILES): CC(C)(C)c1ccc(-c2nc3c(N4CCN(CCF)CC4)cccc3[nH]2)cc1 [7a]

potency to inhibit GnRH receptor (in words) (hGnRH receptors): did not give the desired inhibition
Structure (SMILES): CC(C)(C)c1ccc(-c2nc3c(N4CCN(Cc5cn(-c6nc7ccccc7[nH]6)nn5)CC4)cccc3[nH]2)cc1 [8h]

IC50 (hGnRH receptors): > 10000 nM
Ki (hGnRH receptors): > 1000 nM
Structure (SMILES): CSc1nc(NC(C)C)nc(-n2cc(CN3CCN(c4cccc5[nH]c(-c6ccc(C(C)(C)C)cc6)nc45)CC3)nn2)n1 [8j]
